In experiment [1] the target is T1, Retinal rod rhodopsin-sensitive cGMP 3',5'-cyclic phosphodiesterase subunit delta (Homo sapiens, UniProt O43924).
Description: Binding affinity to PDE-delta (unknown origin) assessed as shift in melting temperature
Experiment [2] concerns the target T1, Retinal rod rhodopsin-sensitive cGMP 3',5'-cyclic phosphodiesterase subunit delta. The experiment can be described thus: Binding affinity to His6-tagged PDE-delta (unknown origin) measured every 3 mins by fluorescence polarization assay. Background: Polarisation of emitted light reports the rotation of a fluorescent probe.

Usually ΔTm stands for the change in melting temperature against a reference sample. For orientation: Kd means the constant that tells how readily two partners part at equilibrium. A low value points to higher affinity.

T1 sequence (O43924 whole entry): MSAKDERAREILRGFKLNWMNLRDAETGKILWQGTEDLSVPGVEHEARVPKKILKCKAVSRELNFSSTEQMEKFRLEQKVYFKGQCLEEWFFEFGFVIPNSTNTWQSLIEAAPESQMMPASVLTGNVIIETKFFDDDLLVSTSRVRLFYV

With `c1ccc(Cn2c(-c3ccc(OCC(C4CCNCC4)n4c(-c5ccccc5)nc5ccccc54)cc3)nc3ccccc32)cc1` (stereo not given), the ΔTm in experiment [1] was found to be 20.5 °C.
In turn, `CC(C)(C)OC(=O)N1CCC(C(COc2ccc(-c3nc4ccccc4n3Cc3ccccc3)cc2)n2c(-c3ccccc3)nc3ccccc32)CC1` (stereo not given) registered a Kd in experiment [2] above 2000 nM. Besides, the ΔTm in experiment [1] was 7.2 °C.
`CC(C)c1nc(N(C)S(C)(=O)=O)nc(-c2ccc(F)cc2)c1/C=C/[C@@H](O)C[C@@H](O)CC(=O)O` [ROSUVASTATIN] gave a Kd in experiment [2] of 1250 nM.
On the same count and under the same terms, to `C=CC(=O)N1CCC(c2nc3ccccc3n2Cc2ccccc2)CC1` belongs above 1000 nM.

The values are drawn from ChEMBL document CHEMBL3286256 (J Med Chem, 2014).
